In this test the target is T1, hTAS1R1 H71Y/rTAS1R3 (UniProt Q7RTX1+Q923K1, H71Y).
T1 construct: UniProtKB number Q7RTX1–1); The cDNA coding region of rTAS1R3 was synthesized with optimized-codon usage for human expression; expressed in transfected cells; host or cells: HEK293T/17
T1 sequence (Q7RTX1 21-841 H71Y): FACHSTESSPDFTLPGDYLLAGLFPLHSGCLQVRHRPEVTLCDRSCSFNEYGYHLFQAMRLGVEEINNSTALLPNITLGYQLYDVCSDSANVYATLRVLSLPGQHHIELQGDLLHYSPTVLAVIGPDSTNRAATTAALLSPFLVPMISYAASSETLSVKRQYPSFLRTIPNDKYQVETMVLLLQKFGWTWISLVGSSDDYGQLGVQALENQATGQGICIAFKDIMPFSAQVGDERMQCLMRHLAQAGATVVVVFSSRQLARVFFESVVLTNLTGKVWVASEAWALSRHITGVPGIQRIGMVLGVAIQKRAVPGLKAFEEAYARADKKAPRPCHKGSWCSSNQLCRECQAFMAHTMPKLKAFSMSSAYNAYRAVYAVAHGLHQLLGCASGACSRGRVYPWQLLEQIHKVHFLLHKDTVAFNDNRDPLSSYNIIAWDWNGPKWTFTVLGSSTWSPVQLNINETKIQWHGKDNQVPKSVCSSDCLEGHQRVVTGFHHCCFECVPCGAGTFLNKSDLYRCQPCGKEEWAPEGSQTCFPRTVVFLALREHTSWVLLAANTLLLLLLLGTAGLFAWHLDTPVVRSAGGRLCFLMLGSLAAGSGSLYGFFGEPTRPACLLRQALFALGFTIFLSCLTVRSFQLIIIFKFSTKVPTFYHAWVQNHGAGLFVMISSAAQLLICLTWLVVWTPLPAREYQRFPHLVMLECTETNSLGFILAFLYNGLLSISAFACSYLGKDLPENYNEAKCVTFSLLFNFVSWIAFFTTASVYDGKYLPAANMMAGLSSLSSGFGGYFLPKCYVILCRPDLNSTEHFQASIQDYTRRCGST
T1 sequence (Q923K1 21-858): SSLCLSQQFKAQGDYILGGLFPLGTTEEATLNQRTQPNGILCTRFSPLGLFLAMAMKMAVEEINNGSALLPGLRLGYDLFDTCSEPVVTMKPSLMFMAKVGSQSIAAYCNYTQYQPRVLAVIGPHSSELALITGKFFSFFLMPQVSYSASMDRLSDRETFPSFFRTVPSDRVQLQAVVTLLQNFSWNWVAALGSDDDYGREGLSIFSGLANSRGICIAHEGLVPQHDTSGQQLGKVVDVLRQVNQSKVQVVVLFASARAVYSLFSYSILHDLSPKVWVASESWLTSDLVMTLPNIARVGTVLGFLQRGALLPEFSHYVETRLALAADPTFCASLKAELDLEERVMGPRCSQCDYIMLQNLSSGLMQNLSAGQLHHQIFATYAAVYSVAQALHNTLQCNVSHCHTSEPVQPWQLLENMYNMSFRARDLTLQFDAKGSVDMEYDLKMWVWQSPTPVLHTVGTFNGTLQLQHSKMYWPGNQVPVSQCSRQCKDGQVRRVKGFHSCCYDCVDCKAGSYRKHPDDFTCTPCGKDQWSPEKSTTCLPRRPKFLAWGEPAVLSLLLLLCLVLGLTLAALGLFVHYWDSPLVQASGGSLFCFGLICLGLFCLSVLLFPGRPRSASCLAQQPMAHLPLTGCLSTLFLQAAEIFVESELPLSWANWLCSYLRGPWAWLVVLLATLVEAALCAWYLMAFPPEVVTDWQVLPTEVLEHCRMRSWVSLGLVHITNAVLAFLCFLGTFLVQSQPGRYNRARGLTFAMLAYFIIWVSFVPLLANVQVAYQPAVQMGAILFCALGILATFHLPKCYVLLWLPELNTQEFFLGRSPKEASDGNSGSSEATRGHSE
The experiment in a line: cell-based. The class given is cell-based, human, rat. From the text: Chimeric Gα proteins, such as Gα16Gust44, Gα16Gi3 or Gα15i2, are widely used in the functional expression of TAS1R receptors ([Backes et al., 2015]; [Suess et al., 2015]; [Toda et al., 2021], [Toda et al., 2013], [Toda et al., 2018]; [Zhang et al., 2008]). Chimeric Gα15i2 (([Toda et al., 2013]), Supplementary data) was generated by replacing the last five residues of the C-terminal tail of rat Gα15i2 (EINLL) (UniProt number G3V6N8; https://www.uniprot.org/uniprot/) with the counterpart sequence from human GNAI2 (DCGLF) (UniProt number P04899-1) and cloning into the pcDNA3.1/Hygro vector (Invitrogen, Thermo Fisher Scientific, Illkirch, France) between the HindIII and NotI restriction sites, resulting in the plasmid pcDNA3.1-Gα15i2. Chimeric Gα16Gust44 construct have already been reported ([Raliou et al., 2011]). Briefly, Gα16Gust44 was generated by replacing the C-terminal of Gα16 with the C-terminal 44 residues of gustducin. As previously described, hTAS1R1 was amplified from human fungiform papillae cDNA and cloned and inserted into pcDNA3 (Invitrogen), generating pcDNA3-TAS1R1-WT (wild-type) ([Raliou et al., 2011]). […] The cDNA coding region of rTAS1R3 was synthesized with optimized-codon usage for human expression (Genewiz) and was cloned and inserted into the mammalian pcDNA4/myc-HisA (Invitrogen) expression vector between the EcoRI and NotI restriction sites, resulting in the plasmid pcDNA4-rTAS1R3. […] The sequence integrity of all the plasmid constructs was verified via automated DNA sequencing (Genewiz).
The hTAS1R1 mutants were co-expressed with the rTAS1R3 subunit in HEK293 cells. […] As a control, the functionality of the mutated receptors was checked after stimulation with S807 (Fig. S8), which interacts with TAS1R1-TMD ([Zhang et al., 2008]).

As to `N[C@@H](CCC(=O)N[C@@H](CS)C(=O)NCC(=O)O)C(=O)O` [GSH, γ-L-glutamyl-L-cysteinyl-glycine], a half-maximal effect (EC50) was put at 12.4 mM. Besides, the “effect of the added compound (1 mM) on the response to L-Glu” value (H71Y) is recorded as “did not affect”. For the setting “H71Y, GSH”, the “Max ∆F/F0” value worked out at 0.65 ± 0.11 and the “R1 = mutant EC50/WT EC50” value came out at 4.9.
